Experiments:
Plasma protein binding = format: in vitro ADME
clinical [1] = conditions: human, in vivo; for clearance: Plasma Clearance; for Vd: Vss
Experimental: The combination of both drugs was administered on day 7. All drugs were infused over 3 hours. Plasma and urine samples were obtained and assayed using validated HPLC/MS methods.

[2] = Example 6: noncompartmental plasma pharmacokinetics after third dose of the Combination (2 g meropenem/2 g Compound I q8h); conditions: for Vss / clearance / Cmax / Tmax: Compound I 2 g q8h; for AUC(0-t) / clearance / Cmax / Tmax / half-life: both, human, plasma, intravenous; for AUC(0-t): AUC0-8, Compound I 2 g q8h; for clearance: CL; for half-life: t1/2, Compound I 2 g q8h
Experimental: (§1) A total of twenty-five (n=25) male and female subjects who met the study entry criteria and completed all phases of the pharmacokinetic study were included in this pharmacokinetic analysis. […] Blood samples were collected to measure drug concentrations in plasma prior to (time 0), and at 1.5, 2.95, 3.083, 3.25, 3.5, 4, 6, and 8 hours after the start of a 3-hour intravenous infusion of the third combination dose.
(§2) (Reports MC14B-0013, MC14B-0015, MC14I-011, and MC14I-0012). The urea concentrations in plasma and BAL were performed with a microplate-based method with an 0-phthalaldehyde chromogenic solution at MicroConstants, Inc., San Diego, Calif.
Peak plasma concentration (Cmax) and time to Cmax (Tmax) were read from the observed plasma concentration-time profile after the start of the intravenous infusion of the third Combination dose. Area under the plasma concentration-time curve over 8 hours (AUC0-8) after the third dose was calculated with the linear-log trapezoidal rule (WinNonlin®, version 6.3, Pharsight Corporation, Cary, N.C.). The elimination rate constant (β) was determined by nonlinear least-squares regression. Elimination half-life (t½) was calculated by dividing β into the natural logarithm of two.

clinical [3] = conditions: human, in vivo; for clearance: Plasma Clearance; for Vd: Vss; remark: listed apart in the source
Experimental: All infusions were administered over 3 hours. Intensive plasma and urine PK sampling was obtained after dosing and assayed using validated HPLC/MS methods.

clinical [4] = conditions: both, human, in vivo
Experimental: as §1
Urea has been commonly used as an endogenous marker to estimate the apparent volume of ELF. Blood samples to determine plasma urea concentrations were obtained just prior to scheduled bronchoscopy. Aliquots of BAL were obtained to determine urea concentrations in BAL and cell count with differential. The standardized bronchoscopy with BAL procedure for the collection of intrapulmonary samples has been previously described in the references listed below.
as §2
The calculations of ELF volume and drug concentrations in ELF and AM were performed with BAL supernatant and pulmonary (alveolar) cells (“cell pellet”) from aspirates recovered from the 2nd, 3rd, and 4th instillations (BAL2). The concentration of drug (ABXELF) in the epithelial lining fluid (ELF) was determined as follows:
[…]
VELF is derived from the following:
where UreaBAL is the concentration of urea in BAL fluid and UreaP is the concentration of urea in plasma.
The concentration of drug (ABXAM) in the alveolar cells (AC) was determined as follows:
Differential cell count was performed to determine the number of macrophages present. A mean macrophage cell volume of 2.42 μl/106 cells was used in the calculations for volume of alveolar cells in the pellet suspension.
The concentration ratios of ELF and AM to the simultaneous plasma concentrations were calculated for each subject and summarized for each group at each sampling time. […] The 8-hour sampling time was also used as a value at time zero for determining the area term of plasma, ELF, and AM. The AUC0-8 for each matrix was determined with the linear trapezoidal method. The ratio of AUC0-8 of ELF to plasma and AM to plasma were calculated.

[5] = AM concentration at time of bronchoscopy and BAL
[6] = ELF concentration at time of bronchoscopy and BAL
[7] = Plasma concentration at time of bronchoscopy and BAL
[8] = Ratio AM to Plasma (total plasma concentration)
[9] = Ratio ELF to Plasma (total plasma concentration)

O=C(O)C[C@@H]1CC[C@H](NC(=O)Cc2cccs2)B(O)O1 [Compound I]
fraction unbound (Plasma protein binding): 0.67
AUC(0-inf) (clinical [1]; 250 mg): 17.5 µg·h/mL
Cmax (clinical [1]; 250 mg): 5200 ng/mL
half-life (clinical [1]; 250 mg): 1.18 h
clearance (clinical [1]; 250 mg): 245 mL/min
Vd (clinical [1]; 250 mg): 23.1 L
AUC(0-inf) (clinical [1]; 1000 mg): 77.6 µg·h/mL
Cmax (clinical [1]; 1000 mg): 22000 ng/mL
half-life (clinical [1]; 1000 mg): 1.56 h
clearance (clinical [1]; 1000 mg): 222 mL/min
Vd (clinical [1]; 1000 mg): 21.4 L
AUC(0-inf) (clinical [1]; 1500 mg): 124 µg·h/mL
Cmax (clinical [1]; 1500 mg): 37200 ng/mL
half-life (clinical [1]; 1500 mg): 1.21 h
clearance (clinical [1]; 1500 mg): 206 mL/min
Vd (clinical [1]; 1500 mg): 19.4 L
Vss ([2]; 1.5-hour BAL Sampling Group): 18.6 ± 2.3 L
Vss ([2]; 3.25-hour BAL Sampling Group): 17.3 ± 2.3 L
Vss ([2]; 4-hour BAL Sampling Group): 16.9 ± 0.9 L
Vss ([2]; 6-hour BAL Sampling Group): 18.1 ± 3.9 L
Vss ([2]; 8-hour BAL Sampling Group): 17.0 ± 3.3 L
Vss ([2]; All Subjects): 17.6 ± 2.6 L
AUC(0-t) ([2]; 1.5-hour BAL Sampling Group): 184 ± 38.6 µg·h/mL
AUC(0-t) ([2]; 3.25-hour BAL Sampling Group): 210 ± 32.2 µg·h/mL
AUC(0-t) ([2]; 4-hour BAL Sampling Group): 214 ± 35.4 µg·h/mL
AUC(0-t) ([2]; 6-hour BAL Sampling Group): 216 ± 33.7 µg·h/mL
AUC(0-t) ([2]; 8-hour BAL Sampling Group): 198 ± 36.6 µg·h/mL
AUC(0-t) ([2]; All Subjects): 204 ± 34.6 µg·h/mL
clearance ([2]; 1.5-hour BAL Sampling Group): 188 mL/min
clearance ([2]; 3.25-hour BAL Sampling Group): 162 mL/min
clearance ([2]; 4-hour BAL Sampling Group): 158 mL/min
clearance ([2]; 6-hour BAL Sampling Group): 158 mL/min
clearance ([2]; All Subjects): 168 mL/min
Cmax ([2]; 1.5-hour BAL Sampling Group): 56100 ± 13000 ng/mL
Cmax ([2]; 3.25-hour BAL Sampling Group): 59700 ± 5800 ng/mL
Cmax ([2]; 4-hour BAL Sampling Group): 60100 ± 5700 ng/mL
Cmax ([2]; 6-hour BAL Sampling Group): 60900 ± 9700 ng/mL
Cmax ([2]; 8-hour BAL Sampling Group): 57900 ± 8800 ng/mL
Cmax ([2]; All Subjects): 59000 ± 8400 ng/mL
Tmax ([2]; 1.5-hour BAL Sampling Group): 2.95 ± 0.01 h
Tmax ([2]; 3.25-hour BAL Sampling Group): 3 ± 0.07 h
Tmax ([2]; 4-hour BAL Sampling Group): 2.98 ± 0.06 h
Tmax ([2]; 6-hour BAL Sampling Group): 3 ± 0.07 h
Tmax ([2]; 8-hour BAL Sampling Group): 2.98 ± 0.06 h
Tmax ([2]; All Subjects): 2.98 ± 0.06 h
half-life ([2]; 1.5-hour BAL Sampling Group): 1.18 ± 0.08 h
half-life ([2]; 3.25-hour BAL Sampling Group): 1.26 ± 0.23 h
half-life ([2]; 4-hour BAL Sampling Group): 1.34 ± 0.26 h
half-life ([2]; 6-hour BAL Sampling Group): 1.37 ± 0.27 h
half-life ([2]; 8-hour BAL Sampling Group): 1.18 ± 0.16 h
half-life ([2]; All Subjects): 1.27 ± 0.21 h
AUC(0-inf) (clinical [3]; 250 mg): 17.5 µg·h/mL
Cmax (clinical [3]; 250 mg): 5200 ng/mL
half-life (clinical [3]; 250 mg): 1.18 h
clearance (clinical [3]; 250 mg): 245 mL/min
Vd (clinical [3]; 250 mg): 23.1 L
AUC(0-inf) (clinical [3]; 1000 mg): 77.6 µg·h/mL
Cmax (clinical [3]; 1000 mg): 22000 ng/mL
half-life (clinical [3]; 1000 mg): 1.56 h
clearance (clinical [3]; 1000 mg): 222 mL/min
Vd (clinical [3]; 1000 mg): 21.4 L
AUC(0-inf) (clinical [3]; 1500 mg): 124 µg·h/mL
Cmax (clinical [3]; 1500 mg): 37200 ng/mL
half-life (clinical [3]; 1500 mg): 1.21 h
clearance (clinical [3]; 1500 mg): 206 mL/min
Vd (clinical [3]; 1500 mg): 19.4 L
concentration at 1.5 h (clinical [4]; [5]): 2710 ± 1440 ng/mL
concentration at 3.25 h (clinical [4]; [5]): 8790 ± 9430 ng/mL
concentration at 4 h (clinical [4]; [5]): 5510 ± 3150 ng/mL
concentration at 6 h (clinical [4]; [5]): 27600 ± 39600 ng/mL
concentration at 8 h (clinical [4]; [5]): 4400 ± 4100 ng/mL
AUC(0-t) (clinical [4]; AUC0-8 based on mean ELF concentrations): 105 µg·h/mL
AUC(0-t) (clinical [4]; AUC0-8 based on median ELF concentrations): 96.7 µg·h/mL
concentration at 1.5 h (clinical [4]; [6]): 18600 ± 3800 ng/mL
concentration at 3.25 h (clinical [4]; [6]): 26100 ± 1100 ng/mL
concentration at 4 h (clinical [4]; [6]): 15700 ± 3400 ng/mL
concentration at 6 h (clinical [4]; [6]): 8030 ± 5800 ng/mL
concentration at 8 h (clinical [4]; [6]): 2610 ± 1350 ng/mL
concentration at 1.5 h (clinical [4]; [7]): 42100 ± 5000 ng/mL
concentration at 3.25 h (clinical [4]; [7]): 51100 ± 6800 ng/mL
concentration at 4 h (clinical [4]; [7]): 28200 ± 5300 ng/mL
concentration at 6 h (clinical [4]; [7]): 10800 ± 2800 ng/mL
concentration at 8 h (clinical [4]; [7]): 2740 ± 1120 ng/mL
Kp at 1.5 h (clinical [4]; [8]): 0.062 ± 0.029
Kp at 3.25 h (clinical [4]; [8]): 0.165 ± 0.163
Kp at 4 h (clinical [4]; [8]): 0.191 ± 0.101
Kp at 6 h (clinical [4]; [8]): 2.58 ± 3.57
Kp at 8 h (clinical [4]; [8]): 1.6 ± 1.1
Kp at 1.5 h (clinical [4]; [9]): 0.45 ± 0.123
Kp at 3.25 h (clinical [4]; [9]): 0.508 ± 0.096
Kp at 4 h (clinical [4]; [9]): 0.57 ± 0.159
Kp at 6 h (clinical [4]; [9]): 0.705 ± 0.329
Kp at 8 h (clinical [4]; [9]): 1.01 ± 0.391
Kp (clinical [4]; intrapulmonary penetration based on AUC0-8 of ELF and total plasma concentrations): ~0.53
Kp (clinical [4]; intrapulmonary penetration, unbound plasma concentrations): 0.79
Kp at 6 h (clinical [4]; mean ratio of AM to plasma concentration): 2.58 ± 3.57
Kp (clinical [4]; mean ratios of AM to simultaneous plasma concentration (range)): 0.062 to 2.58
Kp (clinical [4]; mean ratios of ELF to simultaneous plasma concentrations (range)): 0.45 to 1.01
Kp (clinical [4]; ratio of ELF to total plasma concentrations based on mean AUC0-8): 0.53
Kp (clinical [4]; ratio of ELF to total plasma concentrations based on median AUC0-8): 0.48
Kp (clinical [4]; ratio of ELF to unbound plasma concentrations based on mean AUC0-8): 0.79
Kp (clinical [4]; ratio of ELF to unbound plasma concentrations based on median AUC0-8): 0.72
